Where two headings read alike, the source gives them in different places. Starred links: 1 amine or outer side, 2 acyl side, 3 side chain; linkers in the order of their positions; H or OH if unused. Positions of bridges follow the written chain, without caps; N, C: chain ends. Non-standard residues stand in square brackets, D forms with d. Residues, ends and D or L forms follow the SMILES beside them. Chains are numbered I, II in the order given. No end group written: not given here. ξ: configuration not given here. *: point of attachment. Succinimide(1-C2H4CO,3-yl) = O=C1CC([*:1])C(=O)N1CCC(=O)[*:2]; Biotin = O=C1N[C@H]2[C@H](CS[C@H]2CCCCC(=O)*)N1; X2 = O=C1NC2CS[C@@H](CCCCC(=O)*)C2N1; X1 = O=C1NC2CSC(CCCCC(=O)*)C2N1; ξK = NCCCCC(N)C(=O)O; ξC = NC(CS)C(=O)O; ξS = NC(CO)C(=O)O; tBu = CC(C)(C)*

The subject of series [1] is red blood cell.
Series [2] concerns MSSA.
Series [3] has as its system MSSA. The experiment in a line: Minimum bactericidal concentration (MBC) / bactericidal activity against MSSA. Format: cell-based, S. aureus. Particulars: for MBC (μM) (MSSA): 14 h.
The subject of series [4] is red blood cell. The experiment in a line: Hemolysis (H50). To be noted: Table 3.
A further series in a line: in vitro. To be noted: mouse, serum.

As to “I: CSGR[dR][dK][dR]P[dR][dR][dK][dR]PR[dR][dK]RPR[dR] / II: CSGR[dR][dK][dR]P[dR][dR][dK][dR]PR[dR][dK]RPR[dR] / III: [ξK]G[ξS][ξK][ξS]G[ξK](X2)G[ξC](tBu)-NH2 (linker I:1-III:1, II:1-III:N via Succinimide(1-C2H4CO,3-yl)) [D2-D2-Sc0, CSGRrkrPrrkrPRrkRPRr-Sc0-CSGRrkrPrrkrPRrkRPRr]”, the “H50” value in the series with red blood cell [1] is more than 500 µM. Besides, the “MIC (μM) (MSSA)” value in the series on MSSA [2] was 5 µM. In addition, in the series with MSSA [3], the “MBC (μM) (MSSA)” value was 5 µM.
“I: Ac-[dR]W[dR][dR]H[dK]H[dF][dK][dR]PH[dR][dK]H[dK][dR]GSC-NH2 / II: Ac-[dR]W[dR][dR]H[dK]H[dF][dK][dR]PH[dR][dK]H[dK][dR]GSC-NH2 / III: [ξK]G[ξS][ξK][ξS]G[ξK](X2)G[ξC](tBu)-NH2 (linker I:20-III:1, II:20-III:N via Succinimide(1-C2H4CO,3-yl)) [Ly-Ly-Sc0]”: the “MIC (μM) MRSA (USA300)” value against MRSA was found to be 6.25 µM. In addition, in the series with red blood cell [1], the H50 is more than 500 µM. In addition, in the series on MSSA [2], the “MIC (μM) (MSSA)” value was found to be 12.5 µM. The “MBC (μM) (MSSA)” value against MSSA [3] was found to be 12.5 µM.
“I: CSG[dK][dK]RRHH[dR][dR][dK][dK]R[dR]HH[dR][dR]K / II: CSG[dK][dK]RRHH[dR][dR][dK][dK]R[dR]HH[dR][dR]K / III: [ξK]G[ξS][ξK][ξS]G[ξK](X2)G[ξC](tBu)-NH2 (linker I:1-III:1, II:1-III:N via Succinimide(1-C2H4CO,3-yl)) [D1-D1-Sc0, CSGkkRRHHrrkkRrHHrrK-Sc0-CSGkkRRHHrrkkRrHHrrK]”: the “H50” value with red blood cell [1] was more than 500 µM. Moreover, the “MIC (μM) (MSSA)” value in the series with MSSA [2] came out at 10 µM. Moreover, in the series with MSSA [3], the “MBC (μM) (MSSA)” value was 5 µM.
Consider “I: CSGEMWAIMPPIIKPDNKGH-NH2 / II: CSGR[dR][dK][dR]P[dR][dR][dK][dR]PR[dR][dK]RPR[dR]-NH2 / III: KGSKSGK(Biotin)GC(tBu)-NH2 (linker I:1-III:1, II:1-III:N via Succinimide(1-C2H4CO,3-yl)) [D2-88-SC0]”, for which, in the series with red blood cell [4], the “H50” value is more than 500 µM.
Regarding “I: D[dR]IFH[dK]MQH[dK]PY[dK]I[dK][dK][dR]GSGGGK[ξK](X1)-NH2 / II: [dR]W[dR][dR]H[dK]HF[dK][dR]PH[dR][dK]H[dK][dR]GSG (amide I:23-II:C) [Synbody (4)]”, the half-life (usually the time needed for the level to fall by half in the phase considered) in the series “in vitro” was approximately 2.17 h. Besides, the “MIC, MRSA (n = 2)” value with MRSA is 3.3 µM. For the same compound, the “H50 = concentration that causes 50% hemolysis” value with red blood cell [1] is more than 200 µM. The “MIC, MSSA (n = 3)” value with MSSA [2] stood at 2.2 µM. Besides, the “bactericidal activity against MSSA (in words)” value in the series with MSSA [3] is on record as “some bactericidal activity against MSSA”.
As for `N=C(N)NCCC[C@H](NC(=O)CNC(=O)[C@H](CO)NC(=O)[C@@H](N)CS)C(=O)N[C@H](CCCNC(=N)N)C(=O)N[C@H](CCCCN)C(=O)N[C@H](CCCNC(=N)N)C(=O)N1CCC[C@H]1C(=O)N[C@H](CCCNC(=N)N)C(=O)N[C@H](CCCNC(=N)N)C(=O)N[C@H](CCCCN)C(=O)N[C@H](CCCNC(=N)N)C(=O)N1CCC[C@H]1C(=O)N[C@@H](CCCNC(=N)N)C(=O)N[C@H](CCCNC(=N)N)C(=O)N[C@H](CCCCN)C(=O)N[C@@H](CCCNC(=N)N)C(=O)N1CCC[C@H]1C(=O)N[C@@H](CCCNC(=N)N)C(=O)N[C@H](CCCNC(=N)N)C(=O)O` [D2, CSGRrkrPrrkrPRrkRPRr] (H-CSGR[dR][dK][dR]P[dR][dR][dK][dR]PR[dR][dK]RPR[dR]-OH; N-terminus and C-terminus assumed), the “MIC (μM) (MSSA)” value with MSSA [2] is less than 50 µM.
For the compound `N=C(N)NCCC[C@H](NC(=O)[C@H](CCCNC(=N)N)NC(=O)[C@@H](CCCCN)NC(=O)[C@@H](CCCCN)NC(=O)CNC(=O)[C@H](CO)NC(=O)[C@@H](N)CS)C(=O)N[C@@H](Cc1c[nH]cn1)C(=O)N[C@@H](Cc1c[nH]cn1)C(=O)N[C@H](CCCNC(=N)N)C(=O)N[C@H](CCCNC(=N)N)C(=O)N[C@H](CCCCN)C(=O)N[C@H](CCCCN)C(=O)N[C@@H](CCCNC(=N)N)C(=O)N[C@H](CCCNC(=N)N)C(=O)N[C@@H](Cc1c[nH]cn1)C(=O)N[C@@H](Cc1c[nH]cn1)C(=O)N[C@H](CCCNC(=N)N)C(=O)N[C@H](CCCNC(=N)N)C(=O)N[C@@H](CCCCN)C(=O)O` [D1, CSGkkRRHHrrkkRrHHrrK] (H-CSG[dK][dK]RRHH[dR][dR][dK][dK]R[dR]HH[dR][dR]K-OH; N-terminus and C-terminus assumed), in the series on MSSA [2], the “MIC (μM) (MSSA)” value was less than 50 µM.

These data come from patent US9757472B2, “Proteas stabilized antibacterial peptides for S. aureus” (Arizona Board of Regents on Behalf of Arizona State …, priority 2014, dated 2017).
